Results as given in patent US20260085087A1, “CHEMICAL COMPOUND COMPRISING A TRIAZINE GROUP AND METHOD FOR PRODUCING SAME” (priority 2020, published 2026).
[TzD] = triazinylamidophosphate internucleotide linkage carrying two dodecyl amine moieties; {FAM} = fluorescein (FAM) label

Columns and labels:
HEK293T cells [1] = test: HEK293T cell transfection efficiency by flow cytofluorometry; format: cell-based, human; conditions: 4 hours
Method: (§1) To study cell penetration efficiency, oligonucleotide 5′-[FAM]-CTGACTATGAAGTAT*T-3′ (OSN4F) was used, wherein * is a position of thiazinylamidophosphate unit carrying two dodecyl moieties, and control unmodified oligonucleotide 5′-[FAM]-CTGACTATGAAGTATT-3′ (OSNF).
(§2) Cultured HEK293T and T98G human cells were plated onto the wells of a 24-well microplate in a concentration 20×10^4 cells/well (HEK293T) or 12×10^4 cells/well (T98G) in 500 μl/well IMDM media comprising 10% FBS and 1% solution of antibiotic and antimycotic agents (10 mg/ml streptomycin, 10,000 U/ml penicillin, and 25 mg/ml amphotericin (IMP Biomedicals, Germany) (hereinafter, the complete medium), and incubated for 18 hrs to provide cell attachment. Furthermore, cell medium was replaced with 200 μl/well IMDM medium in the absence of serum and antibiotic agents. Oligonucleotides (OSNF, OSN4F) were dissolved in Opti-MEM and added to the cells until the final concentration of 1 or 5 μM (50 μl/well) was achieved. […] The cells were analyzed on a flow cytometer NovoCyte 3000 (ACEA Biosciences, USA). […] Oligonucleotide penetration efficiency was characterized by two indicators: % of fluorescent cells in a population and average intensity of cell fluorescence in a sample, which were measured using flow cytometry in 4 hours after transfection. […] RFU means relative fluorescence units, LF means Lipofectamine 2000. […]

HEK293T cells [2] = test: Comparison of cell penetration efficiency of oligonucleotides with lipophilic moieties in various modification backbones; format: cell-based, human; conditions: 4 hours after transfection
Method: Cultured HEK293T and T98G human cells were plated onto the wells of a 24-well microplate in a concentration 20×10^4 cells/well (HEK293T) or 12×10^4 cells/well (T98G) in 500 μl/well IMDM media comprising 10% FBS and 1% solution of antibiotic and antimycotic agents (10 mg/ml streptomycin, 10,000 U/ml penicillin, and 25 mg/ml amphotericin (IMP Biomedicals, Germany) (hereinafter, the complete medium), and incubated for 18 hrs to provide cell attachment. Furthermore, cell medium was replaced with 200 μl/well IMDM medium in the absence of serum and antibiotic agents. Oligonucleotides (OSNF, OSN4F) were dissolved in Opti-MEM and added to the cells until the final concentration of 1 or 5 μM (50 μl/well) was achieved. […] The cells were analyzed on a flow cytometer NovoCyte 3000 (ACEA Biosciences, USA). […] Oligonucleotide penetration efficiency was characterized by two indicators: % of fluorescent cells in a population and average intensity of cell fluorescence in a sample, which were measured using flow cytometry in 4 hours after transfection. Histograms A and C show % of fluorescent cells, histograms B and D show average fluorescence intensity. RFU means relative fluorescence units, LF means Lipofectamine 2000. […]
Cell fluorescence percent (left) and average fluorescence intensity (right) were measured using flow cytometry in 4 hours after transfection. […]

HEK293T cells [3] = test: Confocal microscopy of penetration into human cells; format: cell-based; conditions: 1 μM, 4 hours, no serum
Method: In this study, oligonucleotide 5′-[FAM]-CTGACTATGAAGTAT*T-3′ (OSN4F) was used, wherein * is a position of triazinylamidophosphate unit having two dodecyl moieties.
Cultured human cells HEK293T were plated on slides placed to the wells of the 24-well microplate, in a concentration of 6×10^4 cells/well in a complete IMDM medium and incubated at 37° C. in 5% CO2 for 12 to 18 hours to provide cell attachment. Then, the medium was replaced to IMDM, in the absence of serum and antibiotic agent, which comprises OSN4F at a concentration of 1 μM. The cells were incubated in the presence of oligonucleotide at 37° C. in 5% CO2 for 4 hours. […]
Intracellular location of oligonucleotide OSN4F was studied using confocal microscope LSM710 (Zeiss, Germany) with the plan-apochromat 63×/1.40 Oil DIC M27 (Zeiss, Germany) lens and two channels, blue and green. Fluorescence in a blue channel at exciting laser wavelength of 405 nm corresponded to NucBlue (cell nuclei staining); green channel at exciting laser wavelength of 488 nm corresponded to fluorescence of oligonucleotide OSN4F labelled with a 6-carboxyfluorescein moiety.

T98G cells = test: T98G cell transfection efficiency by flow cytofluorometry; format: cell-based, human; conditions: 4 hours
Method: as §1, §2

5′-[FAM]-CTGACTATGAAGTAT*T-3′ (CTGACTATGAAGTATT; DNA, linkages o14 [TzD]1 (s phosphorothioate, o phosphodiester), 5' {FAM}, methylation of C not given here) [OSN4F, * is a triazinylamidophosphate unit carrying two dodecyl moieties]
penetration efficiency (number of transfected cells and fluorescence intensity) (HEK293T cells [1]; 1 or 5 μM, no additional transfection agent): efficiently penetrates the HEK293T cells
penetration efficiency relative to control OSNF with Lipofectamine 2000 (HEK293T cells [1]; OSN4F without transfection agent): comparable
penetration rate (cell fluorescence percent) relative to PGO, PN, ODF (HEK293T cells [2]; 1 μM): significantly higher than in other oligonucleotides used
average fluorescence intensity relative to other oligonucleotides (HEK293T cells [2]): penetrates cells in larger amounts than other oligonucleotides
intracellular location (HEK293T cells [3]): positioning in the cytoplasm and various cell compartments
penetration efficiency relative to control oligonucleotide (T98G cells; 1 or 5 μM, no additional transfectants): penetrates the T98G cells more efficiently than the control oligonucleotide
penetration efficiency in T98G relative to HEK293T cells (T98G cells): reduced relative to the HEK293K kidney cells
